Experimental data reported in article PMC3569060 (Molecular cancer therapeutics, 2012).

How the values were obtained:
[1] = target: T1, ScRR1 (Saccharomyces cerevisiae, UniProt P21524); test: X-ray crystal structure, […] Å, crystal soaking; type: binding; settings: allosteric S-site; Mg2+ bound at alpha- and gamma-phosphates
T1 sequence (P21524 1-888): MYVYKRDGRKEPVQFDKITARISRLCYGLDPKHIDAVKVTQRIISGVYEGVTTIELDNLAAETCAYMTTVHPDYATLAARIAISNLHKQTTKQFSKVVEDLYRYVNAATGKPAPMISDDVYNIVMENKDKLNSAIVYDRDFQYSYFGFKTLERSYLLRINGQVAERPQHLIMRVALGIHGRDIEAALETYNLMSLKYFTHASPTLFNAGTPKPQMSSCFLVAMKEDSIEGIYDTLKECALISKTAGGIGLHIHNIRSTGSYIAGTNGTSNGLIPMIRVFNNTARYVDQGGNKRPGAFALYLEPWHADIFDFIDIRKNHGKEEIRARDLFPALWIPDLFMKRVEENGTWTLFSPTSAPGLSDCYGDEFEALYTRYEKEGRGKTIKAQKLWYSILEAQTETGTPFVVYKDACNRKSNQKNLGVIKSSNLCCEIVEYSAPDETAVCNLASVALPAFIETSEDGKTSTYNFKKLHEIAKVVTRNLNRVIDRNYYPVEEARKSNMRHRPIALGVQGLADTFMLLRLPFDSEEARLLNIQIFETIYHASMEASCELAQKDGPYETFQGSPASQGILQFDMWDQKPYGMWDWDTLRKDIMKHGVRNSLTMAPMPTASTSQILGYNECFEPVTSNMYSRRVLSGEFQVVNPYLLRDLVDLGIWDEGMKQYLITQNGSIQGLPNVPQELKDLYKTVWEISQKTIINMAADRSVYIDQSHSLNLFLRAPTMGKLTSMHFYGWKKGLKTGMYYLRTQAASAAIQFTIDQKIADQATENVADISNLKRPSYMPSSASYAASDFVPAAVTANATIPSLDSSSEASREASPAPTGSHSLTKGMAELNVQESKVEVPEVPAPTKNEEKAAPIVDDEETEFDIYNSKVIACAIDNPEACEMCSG

[2] = target: T2, hRR (hRR1 + hRR2) (Homo sapiens, UniProt P23921); type: biochemical
T2 sequence (P23921 1-792): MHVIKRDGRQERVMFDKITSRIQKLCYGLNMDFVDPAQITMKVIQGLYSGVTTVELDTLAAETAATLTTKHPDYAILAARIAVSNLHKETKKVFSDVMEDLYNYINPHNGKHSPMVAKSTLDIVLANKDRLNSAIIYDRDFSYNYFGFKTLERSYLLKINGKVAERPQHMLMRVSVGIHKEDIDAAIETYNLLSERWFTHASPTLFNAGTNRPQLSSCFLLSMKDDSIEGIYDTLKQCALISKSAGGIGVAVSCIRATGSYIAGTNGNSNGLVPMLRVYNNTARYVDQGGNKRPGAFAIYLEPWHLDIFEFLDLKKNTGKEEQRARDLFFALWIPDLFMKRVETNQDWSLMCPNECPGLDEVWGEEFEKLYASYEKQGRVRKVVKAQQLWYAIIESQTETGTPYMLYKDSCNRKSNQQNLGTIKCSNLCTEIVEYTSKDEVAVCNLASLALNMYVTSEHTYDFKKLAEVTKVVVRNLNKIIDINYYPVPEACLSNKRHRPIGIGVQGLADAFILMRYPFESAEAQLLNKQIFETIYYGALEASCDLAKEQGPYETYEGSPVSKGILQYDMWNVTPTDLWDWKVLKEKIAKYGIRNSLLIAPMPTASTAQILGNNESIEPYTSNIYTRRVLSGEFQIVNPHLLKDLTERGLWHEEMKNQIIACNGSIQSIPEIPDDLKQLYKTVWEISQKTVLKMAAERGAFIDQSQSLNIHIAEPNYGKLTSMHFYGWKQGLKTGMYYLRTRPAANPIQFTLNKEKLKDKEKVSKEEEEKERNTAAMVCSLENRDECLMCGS
T2 sequence (P31350 1-389 partner): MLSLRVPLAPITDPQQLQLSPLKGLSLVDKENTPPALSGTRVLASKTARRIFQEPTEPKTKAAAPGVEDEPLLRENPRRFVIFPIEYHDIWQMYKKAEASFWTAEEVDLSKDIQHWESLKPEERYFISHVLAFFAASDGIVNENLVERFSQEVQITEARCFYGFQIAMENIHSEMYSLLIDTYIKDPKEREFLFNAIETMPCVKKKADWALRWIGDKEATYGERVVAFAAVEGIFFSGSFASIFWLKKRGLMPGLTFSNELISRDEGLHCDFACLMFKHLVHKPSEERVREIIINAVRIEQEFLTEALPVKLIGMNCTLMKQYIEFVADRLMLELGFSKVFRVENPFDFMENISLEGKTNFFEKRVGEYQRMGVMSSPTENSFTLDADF

## O=[N+]([O-])c1ccc2c(ccn2[C@H]2C[C@H](O)[C@@H](COP(=O)(O)OP(=O)(O)OP(=O)(O)O)O2)c1 [5-NITP]
[1]
  X-ray crystal structure, 2.3 Å, crystal soaking: clearly shows electron density for 5-NITP bound at the S-site
[2]
  IC50: 170 ± 5 µM
